Key:
Beauveria bassiana = assay: Microbial viability of liquid carrier concentrates upon accelerated storage stability study (shelf-life), colony counting; assay type: cell-based; conditions: storage at 25° C. without agitation
Experimental: (§1) Standard procedure for microbial viability assessment of liquid carrier concentrates upon accelerated storage stability study (Shelf-life assessment) In order to evaluate the shelf-life of liquid carrier concentrate of the fungi, the liquid carrier concentrates were prepared by mixing 5 wt % of a commercial product (biopesticide) containing a beneficial microorganism and 95 wt % of the solvent to be tested.
(§2) The commercial products tested were in powder form, and the beneficial microorganisms in the composition were: • Beauveria bassiana, • Paecilomyces lilacinus.
(§3) For comparison, a control experiment without the solvent was prepared. For Beauveria bassiana and Paecilomyces lilacinus, 5 wt % of the powder commercial product was added to 95 wt % soybean oil, 2-ethylhexyl lactate or isoamyl laurate.
(§4) The preparations were incubated under accelerated temperature test conditions, at 25° C. and the viability of the microorganism was evaluated after 0, 15 days, 1 month, 3 months, 6 months, 9 months, 12 months and 14 months of incubation without agitation. Trials were performed in duplicates.
(§5) To confirm that the microorganisms were viable after determined incubation/storage time, traditional serial dilution and plating of the samples for colony counting were performed.
(§6) For fungi evaluation, samples of 0.1 mL were taken from each preparation and added to 0.9 mL of an aqueous solution containing 0.1% of Tween 80 (polyoxyethylene sorbitan monooleate) to obtain a 10^−1 dilution. Then 0.1 mL of this dilution was added to 0.9 mL of the same aqueous solution successively until the most appropriate dilution was obtained (usually between 10-4 and 10-7). 0.2 mL of the most appropriate dilutions were spread into petri dishes containing the proper culture media for each microorganism and incubated (at 25° C. for Beauveria bassiana and Paecilomyces lilacinus), until the colony grew.
(§7) The number of the colonies on each petri dish was counted and the results are expressed by colony forming units (CFU)/mL.
(§8) Shelf-life assessment was done on two different fungi (Beauveria bassiana and Paecilomyces lilacinus) in Augeo SL191 solvent (formula (I), with R1, R2: methyl, and R3: H) and in three other benchmark solvents or oils according to the experimental procedures described above. For each microorganism, isoamyl laurate was tested in a different run series which explains the difference between its initial microorganism concentration (CFU/mL) and the one of the other three solvents. The recurrent colony counting was done at different incubation times: t=0, 15 days, 1 month, then every month until the CFU/mL value of a sample drops by two log 10 scale (>100 times), i.e. a reduction of 99%.

Paecilomyces lilacinus = assay: as above; assay type: cell-based; conditions: storage at 25° C. without agitation
Experimental: as §1, §2, §3, §4, §5, §6, §7, §8

Structure (SMILES) | Viability after 1 month (Beauveria bassiana; 1 month) | Viability after 1 month (Paecilomyces lilacinus; 1 month) | Viability after 14 months (Beauveria bassiana; 14 months) | Viability after 14 months (Paecilomyces lilacinus; 14 months)
CCCCC(CC)COC(=O)C(C)O (stereo not shown) [2-ethyl hexyl lactate, 2-ethylhexyl lactate] | less than 1E+05 CFU/mL | less than 1E+05 CFU/mL |  | 
CC1(C)OCC(CO)O1 (stereo not shown) [Augeo SL191, Solketal] |  |  | above 1E+06 CFU/mL | above 1E+06 CFU/mL

From patent US20250017215A1, “LIQUID CARRIER CONCENTRATE COMPRISING AT LEAST ONE BENEFICIAL MICROORGANISM AND USES THEREOF” (priority 2021, published 2025)
